Source: patent US20120232070A1, “Use of Indole Derivatives as Nurr-1 Activators for the Application Thereof as a Medicament for the Treatment of Parkinson's Disease” (Laboratoires Fournier SA, priority 2009, published 2012)

Tests used:
[1] = target: hNurr1_RXRγFL (NURR1/RXRγ heterodimer) (Homo sapiens, UniProt P43354+P48443); assay: Transactivation assay in Cos-7 cells, NURR-1-Gal4 / RXRγ, luciferase reporter; type: cell-based; settings: for Emax: COS-7, read-out: hNurr1_RXRγFL Eff (%), efficacy in % relative to the reference XCT0135908 at 2·10^−5 M (=100%); for EC50: Cos-7 cells, overnight incubation
Sequence of hNurr1_RXRγFL (NURR1/RXRγ heterodimer) (P43354 328-598): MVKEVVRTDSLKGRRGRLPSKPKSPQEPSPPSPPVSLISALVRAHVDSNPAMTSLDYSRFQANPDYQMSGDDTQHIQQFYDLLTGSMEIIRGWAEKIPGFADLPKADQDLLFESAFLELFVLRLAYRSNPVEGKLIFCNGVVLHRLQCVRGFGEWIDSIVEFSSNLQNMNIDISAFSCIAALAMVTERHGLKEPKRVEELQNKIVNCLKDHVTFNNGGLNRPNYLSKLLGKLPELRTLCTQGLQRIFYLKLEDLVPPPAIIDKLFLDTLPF
Sequence of hNurr1_RXRγFL (NURR1/RXRγ heterodimer) (P48443 whole entry, the tested form may be a part): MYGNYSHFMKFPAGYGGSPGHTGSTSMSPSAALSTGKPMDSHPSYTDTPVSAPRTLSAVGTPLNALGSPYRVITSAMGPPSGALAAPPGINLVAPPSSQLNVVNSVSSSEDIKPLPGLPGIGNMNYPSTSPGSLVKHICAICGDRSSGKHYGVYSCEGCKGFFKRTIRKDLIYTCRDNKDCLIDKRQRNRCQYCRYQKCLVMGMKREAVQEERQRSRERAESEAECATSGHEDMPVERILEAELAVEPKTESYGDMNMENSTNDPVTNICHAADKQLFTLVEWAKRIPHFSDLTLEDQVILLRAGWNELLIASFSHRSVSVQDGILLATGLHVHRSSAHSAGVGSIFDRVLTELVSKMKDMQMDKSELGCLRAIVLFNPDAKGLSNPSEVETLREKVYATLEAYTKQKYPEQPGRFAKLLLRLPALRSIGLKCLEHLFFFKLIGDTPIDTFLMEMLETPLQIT
Procedure, shortened: (§1)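 Cos-7 cells co-transfected with human NURR-1-Gal4 chimera, human RXRα or RXRγ, and 5Gal4pGL3-TK-Luc reporter; compounds added at 10^−4 to 3·10^−10 M final, overnight incubation, luciferase read. Induction over each heterodimer's baseline expressed as % of reference RXR agonist XCT0135908 (2·10^−5 M) taken as 100%.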

[2] = target: hNurr1_RXRαFL (NURR1/RXRα heterodimer) (Homo sapiens, UniProt P19793+P43354); assay: Transactivation assay in Cos-7 cells, NURR-1-Gal4 / RXRα, luciferase reporter; type: cell-based; settings: for Emax: COS-7, read-out: hNurr1_RXRαFL Eff (%), efficacy in % relative to the reference XCT0135908 at 2·10^−5 M (=100%); for EC50: Cos-7 cells, overnight incubation
Sequence of hNurr1_RXRαFL (NURR1/RXRα heterodimer) (P19793 whole entry, the tested form may be a part): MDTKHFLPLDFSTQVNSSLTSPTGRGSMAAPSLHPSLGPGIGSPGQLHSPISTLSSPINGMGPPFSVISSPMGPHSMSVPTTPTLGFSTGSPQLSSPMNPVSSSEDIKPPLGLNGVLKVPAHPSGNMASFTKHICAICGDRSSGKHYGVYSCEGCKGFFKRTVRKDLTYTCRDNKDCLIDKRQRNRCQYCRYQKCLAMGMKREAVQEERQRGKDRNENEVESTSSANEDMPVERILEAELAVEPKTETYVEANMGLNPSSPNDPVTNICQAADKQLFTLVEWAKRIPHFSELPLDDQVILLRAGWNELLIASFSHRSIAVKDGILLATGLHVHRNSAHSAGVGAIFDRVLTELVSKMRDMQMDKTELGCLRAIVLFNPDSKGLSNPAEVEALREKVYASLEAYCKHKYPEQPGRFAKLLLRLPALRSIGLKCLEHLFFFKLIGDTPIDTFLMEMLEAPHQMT
Sequence of hNurr1_RXRαFL (NURR1/RXRα heterodimer) (P43354 328-598): as the sequence (P43354 328-598) above
Procedure, shortened: as §1

`COC(=O)c1cc(Cc2cc3cc(C(F)(F)F)ccc3n2S(=O)(=O)c2cccc(C(C)(C)C)c2)cn1C` [Example 192, 4-{[1-[[3-(1,1-dimethylethyl)-phenyl]sulfonyl]-5-trifluoromethyl-1H-indol-2-yl]-methyl}-1-methyl-1H-pyrrol-2-yl-carboxylic acid, methyl ester] was tested, and the Emax [1] was 58%, the EC50 [1] was > 10000 nM and the Emax [2] was 85%. The EC50 [2] was 1120 nM.
`COC(=O)c1ccc(Cc2cc3ccccc3n2S(=O)(=O)c2cccc(C(C)(C)C)c2)cc1` [Example 194, 4-[[1-[[3-(1,1-dimethylethyl)phenyl]sulfonyl]-1H-indol-2-yl]methyl]-benzoic acid, methyl ester] showed an Emax [1] of 36%, an EC50 [1] of 316 nM and an Emax [2] of 42%. It also gave an EC50 [2] of 344 nM.
`CC(C)(C)c1cccc(S(=O)(=O)n2c(Cc3ccc(C(=O)O)cc3)cc3ccccc32)c1` [Example 195, 4-[[1-[[3-(1,1-dimethylethyl)phenyl]sulfonyl]-1H-indol-2-yl]methyl]-benzoic acid] showed an Emax [1] of 56%, an EC50 [1] of 1170 nM and an Emax [2] of 57%. The EC50 [2] was 629 nM.
For `Cc1cc(Cc2cc3cc(C(F)(F)F)ccc3n2S(=O)(=O)c2cccc(C(C)(C)C)c2)c(F)cc1C(=O)O` [Example 196, 4-[[1-[[3-(1,1-dimethylethyl)phenyl]sulfonyl]-5-trifluoromethyl-1H-indol-2-yl]methyl]-5-fluoro-2-methyl-benzoic acid], the Emax [1] was 91%, the EC50 [1] was 479 nM and the Emax [2] was 90%. It also gave an EC50 [2] of 240 nM.
Work on `Cc1cc(C(=O)O)ccc1Cc1cc2cc(C(F)(F)F)ccc2n1S(=O)(=O)c1cccc(C(C)(C)C)c1` [Example 197, 4-[[1-[[3-(1,1-dimethylethyl)phenyl]sulfonyl]-5-trifluoromethyl-1H-indol-2-yl]methyl]-3-methyl-benzoic acid] yielded an Emax [1] of 52%, an EC50 [1] of 592 nM and an Emax [2] of 68%. It also gave an EC50 [2] of 278 nM.
`CC(C)(C)c1cccc(S(=O)(=O)n2c(Cc3ccc(S(N)(=O)=O)cc3)cc3cc(C(F)(F)F)ccc32)c1` [Example 198, 4-[[1-[[3-(1,1-dimethylethyl)-phenyl]sulfonyl]-5-trifluoromethyl-1H-indol-2-yl]methyl]-benzenesulfonamide] was tested, and the Emax [1] was 86%, the EC50 [1] was > 10000 nM and the Emax [2] was 84%. For the same molecule, the EC50 [2] was 7940 nM.
Work on `CC(C)(C)c1cccc(S(=O)(=O)n2c(Cc3cncc(C(=O)O)c3)cc3cc(C(F)(F)F)ccc32)c1` [Example 204, 3-[[1-[[3-(1,1-dimethylethyl)-phenyl]sulfonyl]-5-trifluoromethyl-1H-indol-2-yl]methyl]-5-pyridine carboxylic acid] yielded an Emax [1] of 93%, an EC50 [1] of 195 nM and an Emax [2] of 102%. The EC50 [2] was 107 nM.
`CC(C)(C)c1cccc(S(=O)(=O)n2c(Cc3ccc(C(=O)O)c(Cl)c3)cc3cc(C(F)(F)F)ccc32)c1` [Example 206, 4-[[1-[[3-(1,1-dimethylethyl)-phenyl]sulfonyl]-5-trifluoromethyl-1H-indol-2-yl]methyl]-2-chlorobenzoic acid] gave an Emax [1] of 85%, an EC50 [1] of 363 nM and an Emax [2] of 71%. It also gave an EC50 [2] of 174 nM.
Work on `CC(C)c1ccc(S(=O)(=O)n2c(Cc3ccc(C(=O)O)c(Cl)c3)cc3cc(C(F)(F)F)ccc32)cc1` [Example 209, 4-[[1-[[4-(1-methylethyl)-phenyl]sulfonyl]-5-trifluoromethyl-1H-indol-2-yl]methyl]-2-chlorobenzoic acid] yielded an Emax [1] of 51%, an EC50 [1] of 741 nM and an Emax [2] of 69%. It also gave an EC50 [2] of 333 nM.
Molecule `CC(C)(C)c1cccc(S(=O)(=O)n2c(Cc3ccc(F)c(C(=O)O)c3)cc3cc(C(F)(F)F)ccc32)c1` [Example 210, 3-[[1-[[3-(1,1-dimethylethyl)-phenyl]sulfonyl]-5-trifluoromethyl-1H-indol-2-yl]methyl]-6-fluorobenzoic acid] has an Emax [1] of 68%, an EC50 [1] of 81 nM and an Emax [2] of 70%. It also gave an EC50 [2] of 69 nM.
`CN1CCOc2ccc(S(=O)(=O)n3c(Cc4ccc(C(=O)O)c(Cl)c4)cc4cc(C(F)(F)F)ccc43)cc21` [Example 211, 4-[[1-[[4-methyl-3,4-dihydro-2H-benzo[1,4]oxazin-6-yl]-sulfonyl]-5-trifluoromethyl-1H-indol-2-yl]methyl]-2-chlorobenzoic acid] showed an Emax [1] of 56%, an EC50 [1] of 465 nM and an Emax [2] of 83%. For the same molecule, the EC50 [2] was 385 nM.
`CN1CCOc2ccc(S(=O)(=O)n3c(Cc4ccc(F)c(C(=O)O)c4)cc4cc(C(F)(F)F)ccc43)cc21` [Example 212, 3-[[1-[[4-methyl-3,4-dihydro-2H-benzo[1,4]oxazin-6-yl]-sulfonyl]-5-trifluoromethyl-1H-indol-2-yl]methyl]-6-fluorobenzoic acid] was tested, and the Emax [1] was 81%, the EC50 [1] was 40 nM and the Emax [2] was 80%. The EC50 [2] was 19 nM.
In the case of `O=C(O)c1cncc(Cc2cc3cc(Cl)ccc3n2S(=O)(=O)c2ccc3c(c2)OCCO3)c1` [Example 213, 3-[[1-[(2,3-dihydro-benzo[1,4]dioxin-6-yl)sulfonyl]-5-chloro-1H-indol-2-yl]methyl]-5-pyridine carboxylic acid], the Emax [1] is reported as 31%, the EC50 [1] is reported as > 10000 nM and the Emax [2] is reported as 45%. It also gave an EC50 [2] of 3000 nM.
In the case of `O=C(O)c1ccc(F)c(Cc2cc3cc(C(F)(F)F)ccc3n2S(=O)(=O)c2ccc3c(c2)OCCO3)c1` [Example 214, 3-[[1-[(2,3-dihydro-benzo[1,4]dioxin-6-yl)sulfonyl]-5-trifluoromethyl-1H-indol-2-yl]methyl]-4-fluorobenzoic acid], the Emax [1] is reported as 55%, the EC50 [1] is reported as 804 nM and the Emax [2] is reported as 75%. The EC50 [2] was 681 nM.
`CC(C)(C)c1cccc(S(=O)(=O)n2c(C(F)c3ccc(C(=O)O)cc3)cc3cc(C(F)(F)F)ccc32)c1` (stereo not drawn) [Example 217, 4-[[1-[[3-(1,1-dimethylethyl)phenyl]sulfonyl]-5-(trifluoromethyl)-1H-indol-2-yl]fluoromethyl]benzoic acid] gave an Emax [1] of 80%, an EC50 [1] of 355 nM and an Emax [2] of 83%. The EC50 [2] was 149 nM.
Work on `CC(C)(C)c1cccc(S(=O)(=O)n2c(C(=O)c3ccc(C(=O)O)cc3)cc3cc(C(F)(F)F)ccc32)c1` [Example 219] yielded an Emax [1] of 32%, an EC50 [1] of 3200 nM and an Emax [2] of 57%. For the same molecule, the EC50 [2] was 1130 nM.
For `CC(C)(C)c1cccc(S(=O)(=O)n2c(Cc3ccc(-c4nn[nH]n4)cc3)cc3cc(C(F)(F)F)ccc32)c1` [Example 221, 4-[1-[3-(1,1-dimethylethyl)phenyl]sulfonyl]-5-(trifluoromethyl)-1H-indol-2H-tetrazol-5-yl-benzyl], the Emax [1] was 57%, the EC50 [1] was 162 nM and the Emax [2] was 66%. For the same molecule, the EC50 [2] was 191 nM.
`CC(C)(C)c1cccc(S(=O)(=O)n2c(Cc3ccc(-c4noc(=O)[nH]4)cc3)cc3cc(C(F)(F)F)ccc32)c1` [Example 222, 3-[[4-[1-[[3-(1,1-dimethylethyl)phenyl]sulfonyl]-5-(trifluoromethyl)-1H-indol-2-yl]methyl]-phenyl]-4H-[1,2,4]oxadiazol-5-one] gave an Emax [1] of 55%, an EC50 [1] of 676 nM and an Emax [2] of 62%. For the same molecule, the EC50 [2] was 367 nM.
With `CC(C)(C)c1cccc(S(=O)(=O)n2c(Cc3ccc(C=C4SC(=S)NC4=O)cc3)cc3cc(C(F)(F)F)ccc32)c1` [Example 223] the Emax [1] was 30%, the EC50 [1] was 3390 nM and the Emax [2] was 72%. The EC50 [2] was 1320 nM.
`CC(C)(C)c1cccc(S(=O)(=O)n2c(Cc3ccc(-c4n[nH]c(=O)o4)cc3)cc3cc(C(F)(F)F)ccc32)c1` [Example 226, 5-[4-[[1-[[3-(1,1-dimethylethyl)phenyl]sulfonyl]-5-(trifluoromethyl)-1H-indol-2-yl]methyl]-phenyl]-3H-[1,3,4]oxadiazol-2-one] was tested, and the Emax [1] was 70%, the EC50 [1] was > 10000 nM and the Emax [2] was 82%. The EC50 [2] was 465 nM.
`CC(C)(C)c1cccc(S(=O)(=O)n2c(Cc3ccc(CNS(C)(=O)=O)cc3)cc3cc(C(F)(F)F)ccc32)c1` [Example 227, N-[4-[[1-[[3-(1,1-dimethylethyl)phenyl]sulfonyl]-5-(trifluoromethyl)-1H-indol-2-yl]methyl]benzyl]-methanesulfonamide] gave an Emax [1] of 86%, an EC50 [1] of 316 nM and an Emax [2] of 73%. For the same molecule, the EC50 [2] was 219 nM.
For `CC(C)(C)c1cccc(S(=O)(=O)n2c(Cc3ccc(C4=NOC(=O)C4)cc3)cc3cc(C(F)(F)F)ccc32)c1` [Example 228, 3-[4-[[1-[[3-(1,1-dimethylethyl)phenyl]sulfonyl]-5-(trifluoromethyl)-1H-indol-2-yl]methyl]-phenyl]-4H-isoxazol-5-one], the Emax [1] was 63%, the EC50 [1] was 335 nM and the Emax [2] was 90%. For the same molecule, the EC50 [2] was 113 nM.
Work on `CC(C)(C)c1cccc(S(=O)(=O)n2c(Cc3ccc(C(=O)NS(=O)(=O)c4ccccc4)cc3)cc3cc(C(F)(F)F)ccc32)c1` [Example 229, N-[4-[[1-[[3-(1,1-dimethylethyl)phenyl]sulfonyl]-5-(trifluoromethyl)-1H-indol-2-yl]methyl]benzoyl]-benzenesulfonamide] yielded an Emax [1] of 70%, an EC50 [1] of 303 nM and an Emax [2] of 60%. For the same molecule, the EC50 [2] was 157 nM.
Molecule `CC(C)(CO)c1cccc(S(=O)(=O)n2c(Cc3ccc(C(=O)O)cc3)cc3cc(C(F)(F)F)ccc32)c1` [Example 231, 4-[[1-[[3-(2-hydroxy-1,1-dimethylethyl)phenyl]sulfonyl]-5-(trifluoromethyl)-1H-indol-2-yl]methyl]benzoic acid] has an Emax [1] of 62%, an EC50 [1] of 164 nM and an Emax [2] of 81%. It also gave an EC50 [2] of 65 nM.
